Test results reported in ChEMBL document CHEMBL1201862, “PubChem BioAssay data set” (2004).
Calls of active or inactive are those of the source. Starred links: 1 amine or outer side, 2 acyl side, 3 side chain; linkers in the order of their positions; H or OH if unused. Positions of bridges follow the written chain, without caps; N, C: chain ends. Non-standard residues stand in square brackets, D forms with d. Residues, ends and D or L forms follow the SMILES beside them. Chains are numbered I, II in the order given. Actinocin(1to9) = Cc1c2oc3c(C)ccc(C(=O)[*:2])c3nc-2c(C(=O)[*:1])c(N)c1=O; aThr = C[C@H](O)[C@H](N)C(=O)O; NMeV = CN[C@H](C(=O)O)C(C)C; Sar = CNCC(=O)O

Columns and labels:
[1] = microbe, parasite or virus in culture; type: functional; conditions: Mycobacterium tuberculosis
INS1 = test: beta cell apoptosis inhibitors, cytokine rescue, dose response, luminescence, retest (AID 449756); type: functional, cell-based; conditions: Rattus norvegicus;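 also: cell death triggered by IL-1 beta plus TNF-alpha plus IFN-gamma mixture; protective hits raise ATP signal compared with cytokine alone wells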
[2] = HEp-2 cell cytotoxicity, dose response, cytotoxicity control for RSV inhibitor project, HTS (AID 2410); type: functional; conditions: human respiratory syncytial virus
[3] = target: T1, RNA-binding protein pos-1 (Caenorhabditis elegans, UniProt G5EF15); test: inhibitors of POS-1/mex-3 RNA binding, dose response, biochemical, fluorescence polarization (AID 1964);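 also: purified POS-1 fused to maltose binding protein made in E. coli; potency of compounds blocking POS-1 binding to fluorescent RNA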
T1 sequence (G5EF15 whole entry): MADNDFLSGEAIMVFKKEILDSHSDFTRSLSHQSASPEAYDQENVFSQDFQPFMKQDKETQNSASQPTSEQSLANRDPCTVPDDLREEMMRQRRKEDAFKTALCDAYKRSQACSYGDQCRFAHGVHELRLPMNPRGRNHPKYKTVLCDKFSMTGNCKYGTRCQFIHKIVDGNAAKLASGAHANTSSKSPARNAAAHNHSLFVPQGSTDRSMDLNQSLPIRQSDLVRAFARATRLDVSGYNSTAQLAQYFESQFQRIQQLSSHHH

[4] = target: T2, Zinc finger protein mex-5 (Caenorhabditis elegans, UniProt Q9XUB2); test: MEX-5/TCR-2 RNA interaction inhibitors, dose response, biochemical, C. elegans, fluorescence polarization (AID 1960)
T2 sequence (Q9XUB2 whole entry): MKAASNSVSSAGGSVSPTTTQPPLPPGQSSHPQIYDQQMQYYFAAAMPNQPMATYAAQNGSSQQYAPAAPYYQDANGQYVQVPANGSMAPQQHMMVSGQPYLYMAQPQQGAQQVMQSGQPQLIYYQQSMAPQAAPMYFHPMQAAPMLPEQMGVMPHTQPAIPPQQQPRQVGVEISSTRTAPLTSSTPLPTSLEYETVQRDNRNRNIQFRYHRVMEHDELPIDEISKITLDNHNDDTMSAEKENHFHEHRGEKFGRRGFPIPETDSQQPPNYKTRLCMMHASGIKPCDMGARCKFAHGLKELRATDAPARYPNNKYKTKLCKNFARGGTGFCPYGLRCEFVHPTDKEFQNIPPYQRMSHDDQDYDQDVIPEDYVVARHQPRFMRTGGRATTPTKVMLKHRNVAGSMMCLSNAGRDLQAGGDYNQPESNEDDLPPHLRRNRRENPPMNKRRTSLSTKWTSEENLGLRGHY

H9c2 = test: cells; type: functional, cell-based; conditions: Rattus norvegicus, H9c2, Myocardium;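 also: confirmatory concentration-response retest of ultra-high-throughput screening hits for modulation of myocardial damage; cell death induced by hydrogen peroxide oxidative stress; compound pretreatment for 60 min then peroxide exposure for 2 h; potency is for protecting the cells against peroxide damage rather than for killing them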
P388/ADR = test: cells; type: functional
SN12K1 = test: cells; type: functional
P388 = test: cells; type: functional
[5] = inhibitors of HIV Env-driven cell fusion, dose response, cherry-pick (AID 652057); type: functional, cell-based
[6] = inhibitors of clade B AD8 Env fusion, dose response, cell-based, cherry-pick (AID 652062); type: functional;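 also: luciferase signal from cell-cell fusion driven by HIV-1 clade B AD8 Env; potency is for inhibitors of fusion seen as a drop in luminescence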
[7] = system: Streptococcus sp. 'group A'; test: growth inhibition of control SK(-) GAS strain, dose response, counter-screen for streptokinase expression inhibitor project, luminescence, kanamycin, BacTiterGlo, confirmation (AID 1900); type: functional, organism-based
Streptokinase A = target: T3, Streptokinase A (Streptococcus pyogenes serotype M1, UniProt P10520); test: S. pyogenes streptokinase expression inhibitors, potency, dose response, plasminogen activation absorbance, OD405 (AID 1914); type: functional, Streptococcus pyogenes M1 GAS;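 also: secreted streptokinase activity via plasminogen activation per viability signal from cell pellet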
T3 sequence (P10520 whole entry): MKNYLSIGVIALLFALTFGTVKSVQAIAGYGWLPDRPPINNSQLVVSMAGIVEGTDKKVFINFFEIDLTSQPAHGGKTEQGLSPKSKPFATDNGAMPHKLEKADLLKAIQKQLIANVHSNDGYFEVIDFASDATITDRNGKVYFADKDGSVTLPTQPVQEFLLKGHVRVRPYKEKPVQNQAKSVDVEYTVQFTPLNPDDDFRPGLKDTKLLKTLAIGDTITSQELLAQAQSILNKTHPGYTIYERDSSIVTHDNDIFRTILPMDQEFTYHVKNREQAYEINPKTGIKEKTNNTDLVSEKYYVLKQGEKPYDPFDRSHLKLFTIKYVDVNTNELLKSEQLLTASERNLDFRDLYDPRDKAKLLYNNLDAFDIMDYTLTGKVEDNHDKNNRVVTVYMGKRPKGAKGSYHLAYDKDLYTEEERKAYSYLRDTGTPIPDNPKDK

Streptococcus = test: Group A Streptococcus viability loss, dose response, counter-screen for streptokinase expression inhibitor project, luminescence, BacTiterGlo (AID 1915); type: functional, organism-based;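 also: potency for reduction of bacterial viability or growth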

Row | Compound | GI50 (P388/ADR; Mus musculus, P388/ADR) | GI50 (SN12K1; Homo sapiens, SN12K1) | GI50 (P388; Mus musculus, P388) | further results
1 | CCOC(=O)c1c(CN2CCN(Cc3ccccc3)CC2)n(C)c2cc(Br)c(OC)cc12 |  |  |  | CC50 [1]: > 40 µM (active)
2 | COc1ccccc1NCC(=O)N1CCN(S(=O)(=O)c2ccccc2)CC1 |  |  |  | AC50 (INS1): > 260 µM (inactive)
3 | CSc1ccccc1OCc1cc(C(=O)N2CCC(Oc3cccnc3)CC2)no1 |  |  |  | CC50 [1]: > 40 µM (active)
4 | COc1ccc(CCNC(=O)c2cc3sc(Cl)cc3n2C)cc1OC |  |  |  | CC50 [2]: 27.5 µM (active)
5 | Cc1ccc(S(=O)(=O)N2CCOCC2)cc1C(=O)Nc1ccc(S(=O)(=O)Nc2nccs2)cc1 |  |  |  | EC50 [3]: > 300 µM (not active); EC50 [4]: > 300 µM (not active)
6 | CCCCNC(=O)c1cccc(S(=O)(=O)N2CC3(C)CC2CC(C)(C)C3)c1 (stereo not drawn) |  |  |  | CC50 [2]: 26.5 µM (active)
7 | Cc1ccc2c(c1)CCCN2C(=O)CCc1nc(O)c2ccccc2n1 |  |  |  | IC50 (H9c2): > 79 µM (inactive)
8 | O=[N+]([O-])c1ccc2c(c1)nc(O)c1ccccc12 |  |  |  | IC50 (H9c2): > 79 µM (inactive)
9 | Cn1c(=O)c2nc(NN=Cc3cccc(Br)c3)[nH]c2n(C)c1=O |  |  |  | IC50 (H9c2): > 79 µM (inactive)
10 | O=C(O)CCC(NC(=O)c1ccc(Nc2nc3cc(C(F)(F)F)ccc3nc2-c2ccccc2)cc1)C(=O)O (stereo not drawn) | 38.5 µM (inactive) | 48.2 µM (inactive) | 26.5 µM (inactive) | 
11 | CCOC(=O)c1c(C)c2c(n1C)CCc1c[nH]nc1-2 | > 31.6 µM (inactive) | > 100 µM (inactive) | > 100 µM (inactive) | 
12 | COc1cc2c(cc1OC)C(C(c1ccccc1)c1ccccc1)N(C)CC2 (stereo not drawn) | 41.6 µM (inactive) | 32.6 µM (inactive) | 24.5 µM (inactive) | 
13 | C[C@H]1CN([C@@H](C)CO)C(=O)c2ccccc2-c2ccccc2CO[C@@H]1CN(C)C(=O)Nc1cccc(C(F)(F)F)c1 |  |  |  | AC50 [5]: < 0.26 µM (active); AC50 [6]: 19 µM (active)
14 | COC(C(=O)C(O)C(C)O)C1Cc2cc3cc(OC4CC(OC(C)=O)C(OC5CC(O)C(OC)C(C)O5)C(C)O4)cc(O)c3c(O)c2C(=O)C1OC1CC(OC2CC(OC3CC(C)(O)C(OC(=O)C(C)C)C(C)O3)C(O)C(C)O2)C(O)C(C)O1 (stereo not drawn) | 5.98 µM (inactive) | 0.01 µM (active) | 0.0123 µM (active) | GI50 (P388/ADR): 5.12 µM (inactive); GI50 (SN12K1): 0.00895 µM (active); GI50 (P388): 0.0075 µM (active)
15 | O=C1C=C2SC3C[C@@]24CC1[N+]1=c2c4c(c(O)c4c2=C(C=N4)CC1)N3 | 6.35 µM (inactive) | 1.94 µM (inactive) | 1.83 µM (inactive) | 
16 | CCOC(=O)c1c(N)sc(-c2ccccc2)c1C |  |  |  | CC50 [2]: 28.5 µM (active)
17 | Cc1c2oc3c(C)ccc(C(=O)N[C@@H]4C(=O)N[C@H](C(C)C)C(=O)N5CCC[C@H]5C(=O)N(C)CC(=O)N(C)[C@@H](C(C)C)C(=O)O[C@H]4C)c3nc-2c(C(=O)N[C@@H]2C(=O)N[C@H](C(C)C)C(=O)N3CCC[C@H]3C(=O)N(C)CC(=O)N(C)[C@@H](C(C)C)C(=O)O[C@H]2C)c(N)c1=O (I: [aThr][dV]P[Sar][NMeV] / II: [aThr][dV]P[Sar][NMeV]; ester I:1-I:C, II:1-II:C; linker I:N-II:N via Actinocin(1to9)) | 0.00442 µM (active) | 0.000337 µM (active) | 0.00025 µM (active) | 
18 | CC12CCC(CC1)C(C)(C)O2 [EUCALYPTOL] | 8.17 µM (inactive) | 21.9 µM (inactive) | 9.1 µM (inactive) | EC50 [7]: > 150 µM (not active); EC50 (Streptokinase A): > 150 µM (not active); EC50 (Streptococcus): > 150 µM (not active)
19 | NC1=NC(=O)/C(=C2\CCNC(=O)c3[nH]c(Br)cc32)N1 [HYMENIALDISINE] | 7.28 µM (inactive) | 12.3 µM (inactive) | 3.97 µM (inactive) | 
